Data as given in US20240035092A1, “METHODS, KITS, AND SYSTEMS FOR PREDICTING PATIENT OUTCOMES” (SAPERE BIO, INC., priority 2020, published 2024).

Legend:
[1] = test system: advanced breast cancer, hormone receptor-positive, HER2-negative; test: Time to progression on CDK4/6i treatment; format: in vivo, human; conditions: Palbociclib with letrozole or fulvestrant
Text: Six patients diagnosed with advanced breast cancer who were hormone receptor-positive, HER2-negative, were enrolled into a study and received a CDK4/6 inhibitor, Palbociclib, in combination with hormone-based therapy (letrozole or fulvestrant). Venous blood samples were collected from each patient into an EDTA tube prior to CDK4/6i administration, and at approximately 3 and 6 months (see FIG. 15 for timing) after the start of drug administration. T cells were isolated from blood samples and p16 expression levels were calculated as described in Example 1. Patients were followed to determine how long they received CDK4/6i treatment before becoming resistant to CDK4/6i and their cancer began to progress again (time to progression).

[2] = test system: CIPN patients; conditions: cited from earlier work
[3] = test system: patients diagnosed with early-stage breast cancer; test: Grade 2 or higher CIPN diagnosed by a clinician (CTCAE-CIPN) during taxane chemotherapy; format: in vivo, human; conditions: adjuvant or neoadjuvant chemotherapy, at any point during chemotherapy, 89 patients on paclitaxel, 70 on docetaxel
Text: One hundred fifty-nine patients diagnosed with early-stage breast cancer and scheduled to undergo adjuvant or neoadjuvant chemotherapy treatment that included a taxane regimen (paclitaxel or docetaxel) were enrolled. To be enrolled in the study, each patient must have met all of the inclusion criteria. Inclusion criteria: women ages 21 or older with histologically confirmed Stage I-III breast cancer and scheduled for adjuvant or neoadjuvant chemotherapy. Venous blood samples were collected from each patient into an EDTA tube during the patient's consultation visit with the oncologist or at their first chemotherapy session before chemotherapy was administered. Additional blood samples were collected at the end of chemotherapy treatment for 124 of the initial 159 patients. Median age of patients at consent was 58 years (24-83 range), median p16 was 9.5 (6.8-11.6 range), and median p16Age GAP was −22 years (−94-37 range). T cells were isolated from blood samples and p16 expression levels were calculated as described in Example 1.
Development of grade 2 or higher CIPN as diagnosed by a clinician (CTCAE-CIPN) at any point during chemotherapy was an endpoint of the study. […]

[4] = test system: patients diagnosed with early-stage breast cancer; test: CIPN risk prediction score built from the p16Age GAP regression model; set-up: species or system human; conditions: patient with a CIPN score of 11 (scale 0-20)
Procedure: Regression models were built by step-wise addition of variables such as co-morbidities, chronological age, p16, or p16Age GAP and interactions between the variables were also considered. […] In contrast, when p16Age GAP was used instead of p16 (Model 2), p16Age GAP was able to replace all co-morbidities, chronological age, and p16 as variables to yield the model with the similar fit (AUC 0.76, NPV 87%). The ROC curve depicted in FIG. 4 was calculated using Model 2. The p16Age GAP-containing model was a strong predictor of the risk of developing CIPN.
The data from the regression model shown in FIG. 4 was used to build a CIPN risk prediction score according to standard methods (see, e.g., Hurria, J. Clin Oncol. (2011) and Hurria J. Clin Oncology, (2016)). All variables were assigned a weight based on their R coefficients in the regression model and the sum of all weights was added to create a final risk score for each patient. For a CIPN risk model, the range was adjusted so the total score scale was 0-20, with a single value for each patient. […] In certain embodiments, this risk differential between regimens of similar efficacy can help guide regimen selection. […]

| patients who developed grade 2 or higher CIPN [3] [%] | risk of CIPN [4] [%] | SMILES | also measured |
| --- | --- | --- | --- |
| – | – | CC(=O)c1c(C)c2cnc(Nc3ccc(N4CCNCC4)cn3)nc2n(C2CCCC2)c1=O [CDK 4/6i, Palbociclib] | time to progression (resistance to CDK 4/6i treatment) ([1]; four patients whose p16 expression did not increase above measurement precision): 35-50 months; time to progression (resistance to CDK 4/6i treatment) ([1]; two patients whose p16 expression increased above measurement precision after treatment): 10-20 months |
| – | – | CNCC[C@H](Oc1cccc2ccccc12)c1cccs1 [Duloxetine] | decrease in pain score, on average ([2]; CIPN patients, improvement derived primarily from patients who received platinum-containing agents): one; benefit on CIPN pain ([2]; patients receiving taxanes): no clear benefit |
| 10 | 9 | CC(=O)O[C@@]12CO[C@@H]1C[C@H](O)[C@@]1(C)C(=O)[C@H](O)C3=C(C)[C@@H](OC(=O)[C@H](O)[C@@H](NC(=O)OC(C)(C)C)c4ccccc4)C[C@@](O)([C@@H](OC(=O)c4ccccc4)[C@H]21)C3(C)C [docetaxel] | – |
| 46 | 50 | CC(=O)O[C@H]1C(=O)[C@@]2(C)[C@H]([C@H](OC(=O)c3ccccc3)[C@]3(O)C[C@H](OC(=O)[C@H](O)[C@@H](NC(=O)c4ccccc4)c4ccccc4)C(C)=C1C3(C)C)[C@]1(OC(C)=O)CO[C@@H]1C[C@@H]2O [paclitaxel] | – |
